Test results: the NIST ThermoML archive (doi:10.1021/je060271a)
Values joined by “and” are separate entries in the source; they are usually repeats but may differ in a detail not shown here. Equal values may be shown once.

Settings: 343.15 K, Liquid, Vibrating tube method

CCCCCC(=O)OCC(COC(=O)CCCCC)(COC(=O)CCCCC)COC(=O)CCCCC [pentaerythritol tetrahexanoate]
Settings	mass density
398.2 kPa	957.4 kg/m3
398.4 kPa	957.4 kg/m3
399.3 kPa	957.3 kg/m3
399.8 kPa	957.5 kg/m3
400.1 kPa	957.4 kg/m3
400.6 kPa	957.2 kg/m3
400.8 kPa	957.4 kg/m3
401.5 kPa	957.5 kg/m3
402 kPa	957.5 kg/m3
402.4 kPa	957.3 kg/m3
402.9 kPa	957.6 kg/m3
403.4 kPa	957.4 kg/m3
403.9 kPa	957.4 kg/m3
404.3 kPa	957.5 kg/m3
404.8 kPa	957.4 kg/m3
407.4 kPa	957.3 kg/m3
407.9 kPa	957.4 kg/m3
408.6 kPa	957.4 kg/m3
409 kPa	957.3 kg/m3
409.2 kPa	957.4 kg/m3
409.9 kPa	957.3 kg/m3
410.4 kPa	957.3 kg/m3
413 kPa	957.4 kg/m3
413.5 kPa	957.5 kg/m3
413.9 kPa	957.4 kg/m3
414.4 kPa	957.4 kg/m3
414.9 kPa	957.3 kg/m3
415.1 kPa	957.5 kg/m3
418 kPa	957.4 kg/m3
418.5 kPa	957.5 kg/m3
419.6 kPa	957.4 kg/m3
419.8 kPa	957.4 kg/m3
420.3 kPa	957.3 kg/m3
421.3 kPa	957.3 kg/m3
421.5 kPa	957.3 kg/m3
423.4 kPa	957.3 kg/m3
423.9 kPa	957.3 kg/m3
424.1 kPa	957.4 kg/m3
425.1 kPa	957.3 kg/m3
425.5 kPa	957.4 kg/m3
425.7 kPa	957.4 kg/m3
426.2 kPa	957.4 kg/m3
426.7 kPa	957.3 kg/m3
427.2 kPa	957.3 kg/m3
427.9 kPa	957.5 kg/m3
428.4 kPa	957.4 kg/m3
429 kPa	957.5 kg/m3
429.5 kPa	957.4 kg/m3
429.8 kPa	957.5 kg/m3
430.4 kPa	957.5 kg/m3
430.9 kPa	957.4 kg/m3
431.6 kPa	957.4 kg/m3 and 957.5 kg/m3
431.9 kPa	957.5 kg/m3
432.6 kPa	957.4 kg/m3
432.8 kPa	957.5 kg/m3
433 kPa	957.3 kg/m3
435 kPa	957.5 kg/m3
437.5 kPa	957.5 kg/m3
440.8 kPa	957.4 kg/m3
443.6 kPa	957.3 kg/m3
446.3 kPa	957.4 kg/m3
449.5 kPa	957.5 kg/m3
452.2 kPa	957.5 kg/m3
455.6 kPa	957.4 kg/m3
458.5 kPa	957.4 kg/m3
461.8 kPa	957.4 kg/m3
464.6 kPa	957.3 kg/m3
468.2 kPa	957.4 kg/m3
471.5 kPa	957.4 kg/m3
474.8 kPa	957.4 kg/m3
477.4 kPa	957.5 kg/m3
481.3 kPa	957.6 kg/m3
484.6 kPa	957.4 kg/m3
487.7 kPa	957.3 kg/m3
491.5 kPa	957.4 kg/m3
525.8 kPa	957.3 kg/m3
529.4 kPa	957.6 kg/m3
533.4 kPa	957.5 kg/m3
538.1 kPa	957.5 kg/m3
545.9 kPa	957.4 kg/m3
550.2 kPa	957.6 kg/m3
555.3 kPa	957.6 kg/m3
559.3 kPa	957.5 kg/m3
564 kPa	957.5 kg/m3
569 kPa	957.5 kg/m3
573.7 kPa	957.5 kg/m3
578 kPa	957.5 kg/m3
584 kPa	957.6 kg/m3
588.1 kPa	957.6 kg/m3
593 kPa	957.5 kg/m3
603.9 kPa	957.5 kg/m3
609 kPa	957.6 kg/m3
614.9 kPa	957.5 kg/m3
620.1 kPa	957.6 kg/m3
625 kPa	957.5 kg/m3
631.2 kPa	957.5 kg/m3
636.6 kPa	957.6 kg/m3
641.6 kPa	957.6 kg/m3
647 kPa	957.7 kg/m3
653.6 kPa	957.6 kg/m3
659.4 kPa	957.5 kg/m3
666.5 kPa	957.5 kg/m3
672.6 kPa	957.7 kg/m3
678.3 kPa	957.5 kg/m3
684.7 kPa	957.7 kg/m3
691 kPa	957.6 kg/m3
697.2 kPa	957.5 kg/m3
704.9 kPa	957.6 kg/m3
711.5 kPa	957.6 kg/m3
719.3 kPa	957.5 kg/m3
725.9 kPa	957.6 kg/m3
732.7 kPa	957.6 kg/m3
739.6 kPa	957.6 kg/m3
747.6 kPa	957.6 kg/m3
786 kPa	957.7 kg/m3
793.7 kPa	957.6 kg/m3
801.8 kPa	957.7 kg/m3
809.8 kPa	957.8 kg/m3
818 kPa	957.6 kg/m3
828.1 kPa	957.7 kg/m3
836.4 kPa	957.7 kg/m3
845.3 kPa	957.6 kg/m3
855.7 kPa	957.8 kg/m3
864.5 kPa	957.8 kg/m3
873.7 kPa	957.7 kg/m3
883.3 kPa	957.6 kg/m3
894.6 kPa	957.6 kg/m3
904.5 kPa	957.9 kg/m3
915.8 kPa	957.7 kg/m3
967 kPa	957.8 kg/m3
977.1 kPa	957.8 kg/m3
989.1 kPa	957.8 kg/m3
999.5 kPa	957.8 kg/m3
1011.5 kPa	957.9 kg/m3
1022.2 kPa	957.7 kg/m3
1032.7 kPa	958 kg/m3
1043.4 kPa	957.9 kg/m3
1053.7 kPa	957.9 kg/m3
1066.4 kPa	958 kg/m3
1076.6 kPa	957.9 kg/m3
1087.5 kPa	957.9 kg/m3
1100.4 kPa	957.8 kg/m3
1110.6 kPa	958 kg/m3
1121.6 kPa	957.9 kg/m3
